Patent publication US8729053B2, “Nuclear factor kappa B pathway inhibitor composition and use of same” (The United States of America, as represented by the …, priority 2008, dated 2014)
Entries after “also recorded” stand apart in the source; their conditions may differ. Structures can show the parent of a compound that is named as a salt.

Experiments:
IκBα = assay: Immunoblot of phosphorylated IκBα in HEK293 cells; format: cell-based
Description: To measure endogenous level of several proteins in response to TPA induction and compound I, HEK293 cells were lysed with RIPA buffer (10 mM Tris-HCl pH 7.5, 1 mM EDTA, 0.1% sodium dodecyl sulfate, 0.1% deoxycholate, and protease inhibitor). Whole cell extracts were subjected to immunoblot analysis with the following antibodies: p65 (F-6), p50 (E-10), p52 (C-5), RelB (C-19), IκBα (C-21), PCNA (F-2) were obtained from Santa Cruz Biotechnology (Santa Cruz, Calif.). IKKα, IKKβ, IKKγ, phospho-IκBα, phospho-IKKα/β, phospho-IKKγ, pohospho-Stat3 (Tyr 705 and Ser 727), phospho-p65 (Ser536 and Ser276), phospho-p44/42, phospho-JNKs were purchased from Cell Signaling (Danvers, Mass.), and α-tubulin from Sigma (St. Louis, Mo.). Nuclear and cytoplasmic extracts were prepared with HEK293 cells by NE-PER Nuclear and Cytoplasmic Extraction Reagents (Pierce Biotechnology, Rockford, Ill.) according to the manufacturer's protocol.
To characterize the activity of compound I in targeting events upstream of NFκB, endogenous levels of kinases involved in NFκB activation were examined by immunoblot analysis. The well-established upstream regulators of NFκB activation are IKKα, IKKβ, and IκBα. […] Moreover, the phosphorylation of IκBα was inhibited even at 1.1 μM showing dose-dependent decrease by compound I pretreatment. […] In addition, compound I inhibits TNFα-induced phosphorylation of IKKα/β and IκBα at 1 hour. IKKβ from IKKα was not able to be distinguished in this analysis with antibodies which detect phosphorylated IKKα at Ser176/180 and IKKβ at Ser177/181. TPA-induced phosphorylation of IκBα is mediated primarily through IKKβ catalytic activity; thus compound I represses phosphorylation of IKKβ and in an embodiment both IKKβ and IKKα. […] The total protein levels of IKKα/β, IKKγ, and IκBα were not affected. Thus, upstream activation events rather than transcription factor binding to DNA are targeted by compound I when it inhibits NFκB induction.

IKKβ = molecular target: T1, IKKβ (Homo sapiens, UniProt O14920); assay: K-LISA IKKβ Inhibitor Screening Kit in vitro assay; format: biochemical; settings: 0.1 to 100 μM, incubated with ATP
T1 construct: purchased Calbiochem
T1 sequence (O14920 1-756): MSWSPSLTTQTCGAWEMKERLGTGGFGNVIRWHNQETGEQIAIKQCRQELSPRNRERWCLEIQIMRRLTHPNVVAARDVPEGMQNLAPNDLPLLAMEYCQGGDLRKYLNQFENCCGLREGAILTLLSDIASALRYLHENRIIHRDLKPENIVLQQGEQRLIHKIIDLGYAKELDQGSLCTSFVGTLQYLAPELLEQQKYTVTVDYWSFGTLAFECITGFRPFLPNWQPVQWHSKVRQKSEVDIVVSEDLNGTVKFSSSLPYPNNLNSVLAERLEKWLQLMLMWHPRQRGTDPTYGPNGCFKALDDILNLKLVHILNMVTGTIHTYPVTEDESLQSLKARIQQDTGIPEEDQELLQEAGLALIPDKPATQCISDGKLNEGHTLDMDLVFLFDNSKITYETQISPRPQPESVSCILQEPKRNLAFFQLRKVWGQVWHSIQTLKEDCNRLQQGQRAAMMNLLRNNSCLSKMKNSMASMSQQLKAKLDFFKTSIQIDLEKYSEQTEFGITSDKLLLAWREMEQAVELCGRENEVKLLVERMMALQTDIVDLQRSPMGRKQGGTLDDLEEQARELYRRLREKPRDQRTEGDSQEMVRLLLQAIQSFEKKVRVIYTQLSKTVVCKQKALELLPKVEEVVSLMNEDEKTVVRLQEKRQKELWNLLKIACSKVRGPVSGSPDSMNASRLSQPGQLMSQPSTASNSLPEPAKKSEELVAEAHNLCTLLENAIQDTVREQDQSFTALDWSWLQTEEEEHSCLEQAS
Description: In an attempt to determine whether compound I interferes with ATP binding to the catalytic site, the activity of compound I was measured with fully activated, phosphorylated IKKα or IKKβ. […] However, whether this compound interacts outside of the ATP binding pocket of IKK as an ATP non-competitive inhibitor similar to BMS-345541 is unknown. […] Luciferase activities with TPA induction alone were set at 100% and the relative activities with TPA in the presence of compounds are shown.

NFκB = assay: EMSA of NFκB DNA binding, HEK293 nuclear fractions; format: cell-based
Description: EMSA was performed with the nuclear fraction of HEK293 cell using LightShift Chemiluminescent EMSA Kit (Pierce Biotechnology, Rockford, Ill.) according to the manufacture's instruction. Oligonucleotides for NFκB, NF-1, and AP-1 were labeled with biotin by Biotin 3′ End DNA labeling Kit (Pierce Biotechnology, Rockford, Ill.). The quantified 15 μg of nuclear extracts were incubated for 20 mins with 1 μg/μl Poly (dI.dC), biotin end-label target nucleotides in 20 μl binding buffer DNA-protein complexes were fractionated on 6% a polyacrylamide gel and transferred to a nylon membrane. The membranes were processed to detect biotin-label DNA by cross-linking, blocking, and detection incubations. Results were obtained by X-ray film exposure for 10 sec and development. The target sequences of oligonucleotides for NFκB, NF-1, and AP-1 are as follows;
To determine whether the effect of compound I on nuclear translocation of NFκB leads to inhibited binding of NFκB proteins to DNA, EMSA in HEK293 cells was performed. […] TPA-induced binding complex was attenuated by pretreatment with compound I in a dose-dependent manner (lanes 5-9). This binding inhibition parallels the inhibition of luciferase reporter transactivation and inhibition of nuclear translocation of NFκB proteins. The TPA-induced binding complex disappeared when the labeled NFκB oligonucleotide was competed with an excess of unlabelled probe (90× fold).

Cc1cc(N)ccc1N=Nc1ccc(S(=O)(=O)CCOS(=O)(=O)O)cc1 [compound I, 2-(4-((4-amino-2-methylphenyl)diazenyl)phenylsulfonyl)ethyl hydrogen sulfate]
TPA-induced phosphorylation of IκBα (IκBα; 1.1 μM): inhibited; also recorded: reduced
TPA-induced phosphorylation of IκBα (IκBα; 17.0 and 8.5 μM pretreatment, HEK293): almost completely blocked; also recorded: complete blocking
Total protein levels of IKKα/β, IKKγ, and IκBα (IκBα; HEK293 immunoblot): not affected
TPA-induced phosphorylation of IκBα (IκBα; at 6 and 12 hours): inhibited
TNFα-induced phosphorylation of IκBα (IκBα; at 1 hour): inhibits
Inhibition of phosphorylation of IκBα peptide substrate catalyzed by IKKβ (IKKβ): no inhibition
NFκB DNA binding (NFκB; concentrations as low as 1.1 μM): repressed
TPA-induced NFκB DNA binding complex, dose-dependent manner (NFκB; lanes 5-9, 1 hour pretreatment, TPA 18 hours): attenuated
TPA-induced NFκB DNA binding complex (NFκB; pretreatment at 17 μM): marked loss of binding complex
